According to patent US20250122253A1, “REGULATING MICROTUBULE DYNAMICS AS A THERAPEUTIC TARGET FOR NERVE REPAIR” (City University of Hong Kong, priority 2023, published 2025):

What was measured:
[1] = test system: regenerating sensory axons of the injured sciatic nerve; test: Sciatic nerve pinch test after sciatic nerve crush injury; assay type: in vivo, mice; conditions: 3 days post-injury
Experimental: Sciatic nerve crush or transection injury was performed in anesthetized adult male C57BL/6 or Fmn2^−/− mice (8-12 weeks old) as previously described. Briefly, the left sciatic nerve was exposed at mid-thigh level. For crush injury, the exposed nerve was crushed with smooth forceps (Dumont #5/45 Forceps, Fine Science Tools) at the sciatic notch for 15 seconds. For sciatic nerve transection, an epineural suture was first made at the level of external rotator muscle, just distal to the sciatic notch. The exposed nerve was then transected using a pair of ophthalmic microscissors just distal to the suture. After injury, the overlying muscle and skin were sutured using a 5-0 suture (Ethilon), and the mice were allowed to recover on a heated pad, and returned to their home cages after recovery. The surgeon was blinded to the genotypes and treatments.
For in vivo gene silencing of Fmn2 and/or Hdac5 in DRGs, AAV2/9-Fmn2-shRNA and AAV2/9-Hdac5-shRNA at a titer of 5×10^12 vg/mL (OBIO Technology) were injected into the sciatic nerve directly through a glass micropipette using a microinjector (Harvard Apparatus) two weeks before sciatic nerve crush injury. The mice were then subjected to sciatic nerve crush injury and sciatic nerve pinch test (FIG. 4) and animal behavioural assessment (FIG. 15). The expression of shRNAs was under the control of the U6 promoter, and the expression of the reporter gene eGFP was under the control of the CAG promoter. AAV2/9-scr-shRNA (Packgene) was used as a negative control (see FIG. 22 for the shRNA sequences). On a separate batch of animals, the knockdown efficiency in DRGs was assessed by Western blot analysis in AAV2-Fmn2-shRNA and AAV2-Hdac5-shRNA mice two weeks after the AAV injection (FIGS. S8B and S9). […]
Sciatic nerve pinch test was performed in the ipsilateral side 3 days after sciatic nerve crush injury. […] The distance (in mm) representing the length of axonal regrowth was recorded from the crushed site to the most distal point of sciatic nerve whereas initial withdrawal reflex was observed after pinching. […]

axotomized DRG neurons = test: Neurite outgrowth assay in dissociated DRG cultures; assay type: cell-based, mice; conditions: increasing dose; neurite outgrowth increased almost linearly
Experimental: Primary cultures of dissociated DRG neurons were prepared from adult male C57BL/6 or Fmn2^−/− mice (8-12 weeks old) and their age-matched WT littermates as described. Briefly, DRGs were dissected out from the mice and mildly digested in collagenase/dispase II (Roche Diagnostics) solution, trypsinized and mechanically dissociated using flame polished Pasteur pipettes with three different diameters. DRG neurons were incubated in full NB medium.
For ex vivo DRG explant culture, non-overlapping quadrant images were taken from each DRG explant, and total neurite length was measured using automated WIS-NeuroMath software (Weizmann Institute of Science). Data were obtained from at least 3 separate experiments with n=8 explants per dose. […] Total neurite length and average longest neurite length were quantified using automated WIS-NeuroMath software (Weizmann Institute of Science). Data was obtained from 3 independent experiments repeated in duplicates. βIII-tubulin-positive DRG neurons with intact neurites adjacent to the neuronal cell bodies were counted as healthy neurons for neurite outgrowth assay.

gait movement = test: Sciatic functional index (SFI) walking track analysis; assay type: in vivo, mice; conditions: 15 days post-injury
Experimental: Adult male Fmn2^−/− mice (8-12 weeks old) and their age-matched WT littermates, or adult male C57BL/6 mice (for whole-body X-ray, AAV2/9-Fmn2-shRNA and metaxalone experiments) were trained and habituated one week before the sciatic nerve crush injury. After three independent training sessions (30 minutes per session with two days break), baseline values were taken, and sciatic nerve crush injury were performed one day after the baseline recordings. Function recovery was monitored for 30 days. On day 3 after the sciatic nerve crush, we first perform pinprick assay and followed by motor function assays every other day in a sequential manner (toe spreading, grip strength, and sciatic functional index) with 30 mins apart from each test. Animal behavioural tests were done blinded to the surgery and genotypes.
The walking track analysis was performed by training the mice to walk down a narrow corridor covered with white paper strip (10×60 cm) and the hindlimbs of the mice were pained with red water colour. […] The SFI values were calculated from footprints as follows: • […](experimental print length−naïve print length)/naïve print length+109.5×(experimental toe spread−naïve toe spread)/naïve toe spread+13.3×(experimental intermediary toe spread−naïve intermediary toe spread)/naïve intermediary toe spread−8.8. […]

Q: With `Cc1cc(C)cc(OCC2CNC(=O)O2)c1` (centres unmarked) [metaxalone] as the compound, how does the “distal sensory axonal regrowth (length)” value ([1]; 0.25 μg/μl to the site of injury immediately after crush, twice per day, 3 consecutive days) read?
A: The value was 4.82±0.32 mm.

Q: And the “axonal regrowth (length), delayed treatment” value ([1]; treatment delayed by 24 hours, 0.25 μg/μl to site of injury for 2 consecutive days)?
A: The value was 4.50±0.25 mm.

Q: What about the “concentration at which neurite outgrowth reaches a plateau” value (axotomized DRG neurons) of the same compound?
A: Its value is 20 µM.

Q: And the “increase of average SFI compared with SFI values at day 3 post-injury” value (gait movement; treated immediately)?
A: Its value is 73.0%.

Q: And the “increase of average SFI compared with SFI values at day 3 post-injury, delayed treatment” value (gait movement; treatment delayed by 24 hours)?
A: The value was 71.4%.
